The values below come from BindingDB's records for patent US10660876 (Achillion Pharmaceuticals, 2020).

The target of the test is Complement factor D (Homo sapiens, UniProt P00746). Nature of the test: Inhibition Assay. The procedure: Human Factor D (purified from human serum, Complement Technology, Inc.) at 80 nM final concentration is incubated with test compound at various concentrations for 5 minutes at room temperature in 50 mM Tris, 1M NaCl, pH 7.5. A synthetic substrate Z-L-Lys-SBzl and DTNB (Ellman's reagent) are added to final concentrations of 100 µM each. Absorbance at 405 nm (A405) is recorded at 30 second intervals for 30 minutes using a microplate spectrophotometer. IC50 values are calculated by nonlinear regression of complement Factor D reaction rates as a function of test compound concentration.
Sequence of Complement factor D (P00746 whole entry): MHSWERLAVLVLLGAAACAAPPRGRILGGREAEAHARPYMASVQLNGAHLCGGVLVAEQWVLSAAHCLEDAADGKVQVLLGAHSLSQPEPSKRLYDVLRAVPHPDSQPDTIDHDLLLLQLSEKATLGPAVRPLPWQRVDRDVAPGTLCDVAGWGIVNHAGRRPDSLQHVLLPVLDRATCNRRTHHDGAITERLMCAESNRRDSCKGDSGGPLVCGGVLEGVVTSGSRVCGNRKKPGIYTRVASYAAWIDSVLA
As to `CC(=O)c1cn(CC(=O)N2C[C@H](F)C[C@H]2C(=O)Nc2c[nH]nc2-c2ccc(Cl)cc2Cl)c2ccc(Nc3cncnc3)cc12` [US10660876, Cmpd No. 55], the IC50 (usually the midpoint of a concentration-inhibition curve) is “in the range around 5.5 µM”.

Regarding `CC(=O)c1cn(CC(=O)N2C[C@H](F)C[C@H]2C(=O)NCc2cccc(Cl)c2F)c2cc(N(CC(=O)N3C[C@H](F)C[C@H]3C(=O)NCc3cccc(Cl)c3F)S(C)(=O)=O)ccc12` [US10660876, Cmpd No. 1], the IC50 result is “in the range around 5.5 µM”.

`CNC(=O)[C@@H]1C[C@@H](F)CN1C(=O)Cn1cc(C(C)=O)c2cc(Nc3cncnc3)ccc21` [US10660876, Cmpd No. 20]: the IC50 entry was “in the range around 5.5 µM”. `CC(=O)c1cn(CC(=O)N2C[C@H](F)C[C@H]2C(=O)NCc2nc3ccccc3s2)c2ccc(Nc3cncnc3)cc12` [US10660876, Cmpd No. 16]: the IC50 entry is “in the range around 5.5 µM”. With `CC(=O)c1cn(CC(=O)N2C[C@H](F)C[C@H]2C(=O)Nc2ccccc2-c2nc3ccccc3s2)c2ccc(Nc3cncnc3)cc12` [US10660876, Cmpd No. 32] the figure was > 10 µM; with `CC(=O)c1cn(CC(=O)N2C[C@H](F)C[C@H]2C(=O)NC2CCc3c(F)ccc(F)c32)c2ccc(Nc3cncnc3)cc12` (some centres undefined) [US10660876, Cmpd No. 51], “in the range around 5.5 µM”; with `CC(=O)c1cn(CC(=O)N2C[C@H](F)C[C@H]2C(=O)Nc2ccccc2-n2nccc2C)c2ccc(Nc3cncnc3)cc12` [US10660876, Cmpd No. 30], “in the range around 5.5 µM”. Regarding `CC(=O)c1cn(CC(=O)N2C[C@H](F)C[C@H]2C(=O)Nc2ccc(CN)cc2)c2ccc(Nc3cncnc3)cc12` [US10660876, Cmpd No. 53], the IC50 result is “in the range around 5.5 µM”. With `CC(=O)c1cn(CC(=O)N2C[C@H](F)C[C@H]2C(=O)Nc2nc(-c3c(C)nc4sccn34)cs2)c2ccc(Nc3cncnc3)cc12` [US10660876, Cmpd No. 49] the entry was “in the range around 5.5 µM”; with `CC(=O)c1cn(CC(=O)N2C[C@H](F)C[C@H]2C(=O)Nc2ccccc2N2CCOC2=O)c2ccc(Nc3cncnc3)cc12` [US10660876, Cmpd No. 40], “in the range around 5.5 µM”.

Regarding `COc1cc(C)cc2c1OCCC2NC(=O)[C@@H]1C[C@@H](F)CN1C(=O)Cn1cc(C(C)=O)c2cc(Nc3cncnc3)ccc21` (some centres undefined) [US10660876, Cmpd No. 54], the IC50 entry is “in the range around 5.5 µM”. `CC(=O)c1cn(CC(=O)N2C[C@H](F)C[C@H]2C(=O)Nc2cccc(Cl)c2-n2cncn2)c2ccc(Nc3cncnc3)cc12` [US10660876, Cmpd No. 37]: the IC50 entry was “in the range around 5.5 µM”.

As to `CC(=O)c1cn(CC(=O)N2C[C@H](F)C[C@H]2C(=O)Nc2nnc(-c3ccccc3Cl)s2)c2ccc(Nc3cncnc3)cc12` [US10660876, Cmpd No. 34], the 50% inhibitory concentration (IC50) entry was “in the range around 5.5 µM”. The entry for `CC(=O)c1cn(CC(=O)N2C[C@H](F)C[C@H]2C(=O)N[C@H]2CCCC[C@@H]2O)c2ccc(Nc3cncnc3)cc12` [US10660876, Cmpd No. 36] is “in the range around 5.5 µM”.
